Data from PMC6152416, “Pharmacological and Toxicological Screening of Novel Benzimidazole-Morpholine Derivatives as Dual-Acting Inhibitors” (Molecules : A Journal of Synthetic Chemistry and Natural …, 2017).
Like-named read-outs stand apart in the source and are kept apart here.

Legend:
MTT cytotoxicity assay = format: cell-based, mouse; details: mouse, NIH/3T3 mouse embryonic fibroblast cells, read-out: Cytotoxicity NIH3T3 Cells IC50
Description: (§1) Cytotoxicity was tested using NIH/3T3 mouse embryonic fibroblast cell line (ATCC® CRL-1658™, London, UK). NIH/3T3 cells were incubated according to the supplier’s recommendations. NIH/3T3 cells were seeded as 1 × 10^4 cells into each well of 96-well plates. MTT assay was performed as previously described. The compounds were tested between 1 mM and 0.000316 mM concentrations (1.0, 0.316, 0.10, 0.0316, 0.01, 0.00316, 0.001, 0.000316 mM). The IC50 values were determined by plotting a dose-response curve of inhibition % versus tested concentrations of the compound [62].

[1] = system: NIH/3T3 mouse embryonic fibroblast cell line; assay: MTT cytotoxicity assay; format: cell-based; details: NIH/3T3
Description: as §1

AChE = AChE (Homo sapiens, UniProt P22303); format: biochemical
Description: Inhibition potency of the test compounds against AChE was determined using Ellman’s method. Enzyme solutions were prepared in gelatin solution (1%, w/v), at the concentration of 2.5 units/mL. […] AChE solution (20 µL/well) and test solution (20 µL/well) were added to phosphate buffer solution (140 µL/well, pH 8.0 ± 0.1), and incubated at 25 °C for 5 min. […] The production of the yellow anion was recorded by multimode microplate reader for 10 min at 412 nm. As a control, an identical solution of the enzyme without the inhibitor was processed. The control and the inhibitor readings were corrected with blank-readings. All processes were assayed in four independent determinations.

COX-1 = target: T1, COX-1 (Ovis aries, UniProt P05979); assay: Fluorimetric COX-1 inhibition screening kit (BioVision); format: biochemical; details: for COX-1 inhibition at the initial concentrations: 10^−3 M and 10^−4 M; for inhibition at 10 µM: 10^−5 M; for inhibition at 1 µM: 10^−6 M; for inhibition at 0.1 µM: 10^−7 M; for inhibition at 0.01 µM: 10^−8 M; for inhibition at 0.001 µM: 10^−9 M
T1 construct: purchased BioVision (Milpitas, CA, USA) K548-100
Description: Inhibitory potency of the compounds on COX-1 and COX-2 enzymes was determined by using fluorimetric COX-1 and COX-2 inhibition screening kits from BioVision (Milpitas, CA, USA). The experimental protocol as described in the guides provided by the supplier was followed. All of the pipetting were performed using a robotized system to increase speed, accuracy and precision. Fluorescence intensities of the samples were kinetically measured at 25 °C for 5–10 min by monitoring emissions at 587 nm after excitation at 535 nm. Two appropriate points (T1 and T2) in the linear range of the plot were chosen and the corresponding fluorescence values (RFU1 and RFU2) were obtained. The slope for all samples including Enzyme Control (EC) was calculated by dividing the net ΔRFU (RFU2 − RFU1) values by the time ΔT (T2 − T1). Percentage of relative inhibition was calculated by using the following equation:% Relative inhibition = (Slope of EC − Slope of S/Slope of EC) × 100 where S is the term representing the tested compound [51, 52]. […] The IC50 values were calculated using the plots of the enzyme activity against concentrations by applying regression analyses.

human recombinant MAO-B = target: T2, human recombinant MAO-B (Homo sapiens, UniProt P27338); assay: MAO inhibition assay (kynuramine, fluorimetric); format: biochemical
T2 sequence (P27338 1-520): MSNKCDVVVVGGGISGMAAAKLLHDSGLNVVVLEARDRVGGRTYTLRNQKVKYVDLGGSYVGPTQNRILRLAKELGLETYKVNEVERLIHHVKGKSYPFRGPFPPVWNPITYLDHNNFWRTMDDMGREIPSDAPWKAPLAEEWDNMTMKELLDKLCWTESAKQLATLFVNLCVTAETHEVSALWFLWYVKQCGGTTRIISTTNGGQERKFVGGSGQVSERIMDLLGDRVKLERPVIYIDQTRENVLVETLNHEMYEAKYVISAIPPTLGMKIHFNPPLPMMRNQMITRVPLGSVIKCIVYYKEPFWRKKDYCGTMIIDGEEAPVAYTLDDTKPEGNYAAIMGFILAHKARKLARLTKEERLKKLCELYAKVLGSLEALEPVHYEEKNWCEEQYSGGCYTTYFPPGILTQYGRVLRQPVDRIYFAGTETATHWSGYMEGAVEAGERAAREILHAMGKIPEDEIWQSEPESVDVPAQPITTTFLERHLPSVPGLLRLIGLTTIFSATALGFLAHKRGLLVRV
Description: (§2) Enzyme activity assays were performed according to the procedure reported by Matsumoto et al. with slight modifications. In order to prevent the destructive effect of light on MAO enzymes, the assays were performed in 96-well black plates. Phosphate buffer solution (0.1 M, pH = 7.4) was used for preparation of stock solutions (5 mg/mL) of both human recombinant MAO-A and MAO-B enzymes. […] The addition of the test compound solution was followed by addition of either MAO-A or MAO-B enzyme (50 μL/well) solutions. After 10 min of incubation at 37 °C, kynuramine (50 μL/well) was added and enzyme-substrate reaction was initiated. The plate was incubated for 20 min at 37 °C and then reaction was terminated by addition of 2 N NaOH (75 μL/well). The fluorimetric reads from the top was performed at 310 nm excitation and 380 nm emission wavelengths.

human recombinant MAO-A = target: T3, human recombinant MAO-A (Homo sapiens, UniProt P21397); assay: MAO inhibition assay (kynuramine, fluorimetric); format: biochemical
T3 sequence (P21397 1-527): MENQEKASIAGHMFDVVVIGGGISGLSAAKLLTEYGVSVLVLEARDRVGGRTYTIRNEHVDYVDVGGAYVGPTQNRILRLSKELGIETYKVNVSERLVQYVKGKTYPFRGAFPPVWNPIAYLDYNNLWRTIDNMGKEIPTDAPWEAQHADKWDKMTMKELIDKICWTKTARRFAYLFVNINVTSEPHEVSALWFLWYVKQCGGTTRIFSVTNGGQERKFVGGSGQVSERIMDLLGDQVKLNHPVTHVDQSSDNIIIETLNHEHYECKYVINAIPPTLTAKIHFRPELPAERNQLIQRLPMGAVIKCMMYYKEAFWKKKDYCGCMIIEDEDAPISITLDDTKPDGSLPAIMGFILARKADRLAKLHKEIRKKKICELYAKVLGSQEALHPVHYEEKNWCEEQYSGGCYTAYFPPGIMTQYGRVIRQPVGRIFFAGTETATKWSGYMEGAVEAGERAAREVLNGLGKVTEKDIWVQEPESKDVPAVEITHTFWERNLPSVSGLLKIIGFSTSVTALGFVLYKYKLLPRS
Description: as §2

Sequence of AChE (P22303 32-614): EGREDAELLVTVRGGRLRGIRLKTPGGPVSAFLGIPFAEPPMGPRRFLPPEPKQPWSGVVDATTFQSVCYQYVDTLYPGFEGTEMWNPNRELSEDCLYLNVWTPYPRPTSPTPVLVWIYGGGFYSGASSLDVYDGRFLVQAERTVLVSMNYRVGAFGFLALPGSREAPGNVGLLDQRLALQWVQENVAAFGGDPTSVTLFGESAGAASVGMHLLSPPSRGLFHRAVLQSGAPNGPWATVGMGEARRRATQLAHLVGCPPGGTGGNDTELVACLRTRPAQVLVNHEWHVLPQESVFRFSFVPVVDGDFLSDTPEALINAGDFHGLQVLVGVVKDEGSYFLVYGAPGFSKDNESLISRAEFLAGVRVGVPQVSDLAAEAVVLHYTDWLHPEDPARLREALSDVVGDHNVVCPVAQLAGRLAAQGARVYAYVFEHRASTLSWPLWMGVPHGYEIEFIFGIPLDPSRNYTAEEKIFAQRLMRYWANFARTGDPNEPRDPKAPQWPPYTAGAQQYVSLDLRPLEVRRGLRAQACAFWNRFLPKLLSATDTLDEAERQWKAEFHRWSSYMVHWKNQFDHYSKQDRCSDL
T1 sequence (P05979 25-600): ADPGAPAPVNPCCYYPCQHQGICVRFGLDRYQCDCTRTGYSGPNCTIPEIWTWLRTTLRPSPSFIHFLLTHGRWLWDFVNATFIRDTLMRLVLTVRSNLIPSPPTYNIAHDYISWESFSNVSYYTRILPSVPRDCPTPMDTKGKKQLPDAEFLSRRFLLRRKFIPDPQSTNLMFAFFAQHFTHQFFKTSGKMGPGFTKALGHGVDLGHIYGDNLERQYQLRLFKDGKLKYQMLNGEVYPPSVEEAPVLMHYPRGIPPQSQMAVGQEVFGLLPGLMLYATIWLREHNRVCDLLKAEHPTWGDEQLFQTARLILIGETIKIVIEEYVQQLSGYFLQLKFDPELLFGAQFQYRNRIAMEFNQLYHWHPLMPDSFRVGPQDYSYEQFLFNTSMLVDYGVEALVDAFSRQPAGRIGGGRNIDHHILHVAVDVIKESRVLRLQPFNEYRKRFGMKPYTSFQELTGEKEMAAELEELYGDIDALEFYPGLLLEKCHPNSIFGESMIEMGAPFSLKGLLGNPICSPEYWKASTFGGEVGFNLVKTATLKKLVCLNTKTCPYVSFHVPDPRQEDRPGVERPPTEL

Row | Compound | IC50 (MTT cytotoxicity assay) [µM] | cytotoxicity in words [1] | AChE Inhibition (%) (AChE; 10^-3 M) | AChE Inhibition (%) (AChE; 10^-4 M) | IC50 (COX-1) [µM] | COX-1 Inhibition (%) (COX-1; 10^-3 M) | COX-1 Inhibition (%) (COX-1; 10^-4 M) | COX-1 inhibition at the initial concentrations (COX-1) | inhibition at 10 µM (COX-1) [%] | inhibition at 1 µM (COX-1) [%] | inhibition at 0.1 µM (COX-1) [%] | inhibition at 0.01 µM (COX-1) [%] | inhibition at 0.001 µM (COX-1) [%] | MAO-B Inhibition (%) (human recombinant MAO-B; 10^-3 M) | MAO-B Inhibition (%) (human recombinant MAO-B; 10^-4 M) | MAO-A Inhibition (%) (human recombinant MAO-A; 10^-3 M) | MAO-A Inhibition (%) (human recombinant MAO-A; 10^-4 M)
1 | FC(F)(F)Oc1ccc(-c2nc3ccccc3n2CCN2CCOCC2)cc1 [Compound 2m, 2-(4-Trifluoromethoxyphenyl)-1-[2-(morpholin-4-yl)ethyl]-1H-benzimidazole] | 100 | non-cytotoxic | 32.90 | 32.90 | 21.9 | 79.15 | 78.61 | more than 50% | 47.4 ± 1.16 | 42 ± 0.88 | 36.6 ± 0.92 | 26.2 ± 0.79 | 20 ± 0.62 | 25.84 | 12.43 | 34.29 | 16.39
2 | COc1ccc(-c2nc3ccccc3n2CCN2CCOCC2)cc1 [Compound 2b, 2-(4-Methoxyphenyl)-1-[2-(morpholin-4-yl)ethyl]-1H-benzimidazole] | 316 | non-cytotoxic | 5.19 | 5.19 | 8.1 | 90.12 | 87.62 | more than 50% | 59.4 ± 1.24 | 42.8 ± 1.02 | 37.1 ± 0.92 | 26.8 ± 0.87 | 19.6 ± 0.76 | 32.44 | 31.75 | 29.44 | 24.61
3 | CC(C)c1ccc(-c2nc3ccccc3n2CCN2CCOCC2)cc1 [Compound 2e, 2-(4-Isopropylphenyl)-1-[2-(morpholin-4-yl)ethyl]-1H-benzimidazole] |  |  | 17.51 | 17.51 |  | 26.47 | 19.88 |  |  |  |  |  |  | 35.47 | 26.65 | 24.29 | 17.31
4 | CCOc1ccc(-c2nc3ccccc3n2CCN2CCOCC2)cc1 [Compound 2j, 2-(4-Ethoxyphenyl)-1-[2-(morpholin-4-yl)ethyl]-1H-benzimidazole] | 316 | non-cytotoxic | 7.20 | 7.20 | 14.2 | 85.07 | 88.68 | more than 50% | 51.4 ± 1.15 | 44.5 ± 1.07 | 37.7 ± 0.76 | 27.5 ± 0.82 | 23.4 ± 0.61 | 41.73 | 32.44 | 28.47 | 19.42
5 | Clc1ccc(-c2nc3ccccc3n2CCN2CCOCC2)cc1 [Compound 2c, 2-(4-Chlorophenyl)-1-[2-(morpholin-4-yl)ethyl]-1H-benzimidazole] |  |  | 5.48 | 5.48 |  | 24.55 | 22.15 |  |  |  |  |  |  | 41.12 | 33.54 | 31.58 | 26.17
